From article PMC3314994, “Inhibitors of human histone deacetylase with potent activity against the African trypanosome Trypanosoma brucei” (Bioorganic & Medicinal Chemistry Letters, 2012)

What was measured:
[1] = test system: Trypanosoma brucei (BSF); test: Growth inhibition of cultured bloodstream form T. brucei; assay type: cell-based, Trypanosoma brucei (strain 427); details: Trypanosoma brucei, cultured bloodstream form, strain 427, triplicate; for IC50: read-out: Trypanosoma brucei (BSF) IC50 ± SD; for IC90: read-out: Trypanosoma brucei (BSF) IC90 ± SD
Method: Treatment of parasites with micromolar levels of these inhibitors could result in cell death within 4 h (Fig. 1).
[30] Growth inhibitory properties against cultured bloodstream form T. brucei were determined as described previously.[29] Experiments were performed in triplicate and data are presented as ±SD.

[2] = test system: HDAC (FDL_HELA); test: Histone deacetylase activity in HeLa cell lysates (fluorescent assay kit); assay type: biochemical, Human; details: lysed HeLa cells; read-out: HDAC (FDL_HELA) IC50 ± SD
Method: (§1) The compounds from the different structural subclasses were all active as HDAC inhibitors, measured in an assay of enzymes in HeLa cell lysates.[23,24] HeLa cells express multiple HDACs, including HDAC 1, 2, 3, 4, and 8.[25–27] […] To further characterise the compounds with respect to HDAC selectivity, we determined their inhibitory properties against recombinant expressed human HDACs (rhHDAC 1–4, 6–9).[28]
[24] Histone deacetylase activity was determined in lysed Human cervix epithelial cancer HeLa cells. To determine the IC50 of test compound a commercially available fluorescent assay kit was used employing an acetylated enzyme substrate.[23]

[3] = molecular target: rhHDAC 2 (Homo sapiens, UniProt Q92769); test: Inhibition of recombinant human HDAC isoforms; assay type: biochemical; details: mean ± SD, triplicate per plate, min two plates; read-out: ED50 rhHDAC 2
rhHDAC 2, sequence (Q92769 whole entry, canonical isoform): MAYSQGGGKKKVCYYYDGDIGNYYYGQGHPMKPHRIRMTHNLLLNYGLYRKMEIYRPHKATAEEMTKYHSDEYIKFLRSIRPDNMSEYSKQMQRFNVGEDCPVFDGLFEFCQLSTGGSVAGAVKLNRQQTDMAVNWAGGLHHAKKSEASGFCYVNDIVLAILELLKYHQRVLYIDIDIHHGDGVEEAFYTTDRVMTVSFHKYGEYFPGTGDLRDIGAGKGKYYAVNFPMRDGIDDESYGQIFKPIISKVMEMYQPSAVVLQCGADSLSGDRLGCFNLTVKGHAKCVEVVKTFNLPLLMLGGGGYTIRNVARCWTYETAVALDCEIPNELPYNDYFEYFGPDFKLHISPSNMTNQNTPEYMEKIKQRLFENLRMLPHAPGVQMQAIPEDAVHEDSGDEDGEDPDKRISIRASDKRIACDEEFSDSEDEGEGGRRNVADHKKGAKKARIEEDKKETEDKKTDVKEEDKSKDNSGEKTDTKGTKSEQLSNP
Description: as §1

[4] = molecular target: T1, rhHDAC 7 (Homo sapiens, UniProt Q8WUI4); test: Inhibition of recombinant human HDAC isoforms; assay type: biochemical; details: mean ± SD, triplicate per plate, min two plates; read-out: ED50 rhHDAC 7
T1 sequence (Q8WUI4 1-952): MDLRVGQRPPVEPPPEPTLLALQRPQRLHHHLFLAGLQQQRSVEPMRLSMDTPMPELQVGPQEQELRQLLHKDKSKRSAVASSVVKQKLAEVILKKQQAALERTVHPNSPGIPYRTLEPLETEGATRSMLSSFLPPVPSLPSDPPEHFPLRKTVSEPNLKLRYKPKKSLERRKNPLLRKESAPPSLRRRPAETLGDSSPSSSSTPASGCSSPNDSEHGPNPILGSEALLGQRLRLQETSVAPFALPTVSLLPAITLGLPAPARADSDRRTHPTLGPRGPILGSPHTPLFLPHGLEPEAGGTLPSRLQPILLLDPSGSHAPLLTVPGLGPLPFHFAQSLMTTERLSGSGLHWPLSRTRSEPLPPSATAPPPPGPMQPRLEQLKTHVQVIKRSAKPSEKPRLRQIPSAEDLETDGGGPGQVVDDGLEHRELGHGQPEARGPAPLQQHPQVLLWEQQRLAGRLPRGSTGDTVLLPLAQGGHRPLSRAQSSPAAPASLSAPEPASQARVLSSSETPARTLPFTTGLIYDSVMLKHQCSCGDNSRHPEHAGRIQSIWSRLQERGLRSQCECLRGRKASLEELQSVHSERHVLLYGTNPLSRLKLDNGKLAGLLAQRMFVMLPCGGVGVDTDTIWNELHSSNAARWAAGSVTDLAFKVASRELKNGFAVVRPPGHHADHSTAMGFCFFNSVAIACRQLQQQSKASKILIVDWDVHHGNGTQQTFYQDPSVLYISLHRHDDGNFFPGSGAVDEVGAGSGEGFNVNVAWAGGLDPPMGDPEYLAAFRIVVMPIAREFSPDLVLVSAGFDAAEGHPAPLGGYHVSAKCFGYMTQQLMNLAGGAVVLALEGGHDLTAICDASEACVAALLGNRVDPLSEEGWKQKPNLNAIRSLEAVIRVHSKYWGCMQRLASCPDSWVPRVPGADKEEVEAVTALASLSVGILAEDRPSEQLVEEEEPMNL
Description: as §1

[5] = molecular target: rhHDAC 9 (Homo sapiens, UniProt Q9UKV0); test: Inhibition of recombinant human HDAC isoforms; assay type: biochemical; details: mean ± SD, triplicate per plate, min two plates; read-out: ED50 rhHDAC 9
rhHDAC 9, sequence (Q9UKV0 whole entry, canonical isoform): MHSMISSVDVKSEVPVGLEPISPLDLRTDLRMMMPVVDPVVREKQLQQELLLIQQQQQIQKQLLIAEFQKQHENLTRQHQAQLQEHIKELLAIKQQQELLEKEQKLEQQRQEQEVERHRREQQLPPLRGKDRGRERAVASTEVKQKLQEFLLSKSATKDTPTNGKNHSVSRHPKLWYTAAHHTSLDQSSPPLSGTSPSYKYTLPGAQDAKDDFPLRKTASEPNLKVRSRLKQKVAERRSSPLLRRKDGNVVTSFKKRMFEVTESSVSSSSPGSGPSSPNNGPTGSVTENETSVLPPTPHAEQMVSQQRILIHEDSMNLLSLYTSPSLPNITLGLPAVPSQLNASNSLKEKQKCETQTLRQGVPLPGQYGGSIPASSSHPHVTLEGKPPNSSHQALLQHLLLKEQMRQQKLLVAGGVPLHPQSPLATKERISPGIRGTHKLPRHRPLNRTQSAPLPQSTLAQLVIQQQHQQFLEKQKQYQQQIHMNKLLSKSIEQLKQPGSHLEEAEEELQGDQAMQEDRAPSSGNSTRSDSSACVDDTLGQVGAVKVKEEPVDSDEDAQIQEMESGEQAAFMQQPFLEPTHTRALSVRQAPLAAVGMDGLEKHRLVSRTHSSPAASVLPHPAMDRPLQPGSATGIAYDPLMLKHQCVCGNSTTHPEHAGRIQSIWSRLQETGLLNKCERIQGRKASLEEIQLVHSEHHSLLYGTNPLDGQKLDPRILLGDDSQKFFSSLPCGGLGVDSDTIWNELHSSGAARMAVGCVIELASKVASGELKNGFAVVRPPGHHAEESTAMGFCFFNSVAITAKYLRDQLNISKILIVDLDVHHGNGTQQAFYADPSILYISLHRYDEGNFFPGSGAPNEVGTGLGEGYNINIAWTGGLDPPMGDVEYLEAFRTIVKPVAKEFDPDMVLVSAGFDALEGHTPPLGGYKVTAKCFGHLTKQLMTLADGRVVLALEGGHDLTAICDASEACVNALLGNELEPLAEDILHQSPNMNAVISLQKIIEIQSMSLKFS
Description: as §1

[6] = molecular target: rhHDAC 3 (Homo sapiens, UniProt O15379); test: Inhibition of recombinant human HDAC isoforms; assay type: biochemical; details: mean ± SD, triplicate per plate, min two plates; read-out: ED50 rhHDAC 3
rhHDAC 3, sequence (O15379 whole entry, canonical isoform): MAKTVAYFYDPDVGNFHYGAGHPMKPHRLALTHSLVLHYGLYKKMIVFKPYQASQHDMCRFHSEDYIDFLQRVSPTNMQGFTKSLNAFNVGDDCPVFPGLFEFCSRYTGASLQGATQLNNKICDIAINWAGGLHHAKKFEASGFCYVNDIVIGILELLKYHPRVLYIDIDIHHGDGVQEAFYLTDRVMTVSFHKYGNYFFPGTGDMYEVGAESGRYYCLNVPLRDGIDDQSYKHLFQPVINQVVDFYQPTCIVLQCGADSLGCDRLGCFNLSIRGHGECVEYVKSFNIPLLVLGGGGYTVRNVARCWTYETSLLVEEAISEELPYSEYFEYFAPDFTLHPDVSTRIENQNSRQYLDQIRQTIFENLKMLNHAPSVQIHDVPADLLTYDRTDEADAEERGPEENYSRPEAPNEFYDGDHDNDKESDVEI
rhHDAC 3, sequence (Q9Y618 395-489 partner limits assumed): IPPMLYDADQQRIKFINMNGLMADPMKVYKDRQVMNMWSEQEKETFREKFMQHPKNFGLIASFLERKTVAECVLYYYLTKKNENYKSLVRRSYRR
Description: as §1

[7] = molecular target: T2, rhHDAC 6 (Homo sapiens, UniProt Q9UBN7); test: Inhibition of recombinant human HDAC isoforms; assay type: biochemical; details: mean ± SD, triplicate per plate, min two plates; read-out: ED50 rhHDAC 6
T2 sequence (Q9UBN7 1-1215): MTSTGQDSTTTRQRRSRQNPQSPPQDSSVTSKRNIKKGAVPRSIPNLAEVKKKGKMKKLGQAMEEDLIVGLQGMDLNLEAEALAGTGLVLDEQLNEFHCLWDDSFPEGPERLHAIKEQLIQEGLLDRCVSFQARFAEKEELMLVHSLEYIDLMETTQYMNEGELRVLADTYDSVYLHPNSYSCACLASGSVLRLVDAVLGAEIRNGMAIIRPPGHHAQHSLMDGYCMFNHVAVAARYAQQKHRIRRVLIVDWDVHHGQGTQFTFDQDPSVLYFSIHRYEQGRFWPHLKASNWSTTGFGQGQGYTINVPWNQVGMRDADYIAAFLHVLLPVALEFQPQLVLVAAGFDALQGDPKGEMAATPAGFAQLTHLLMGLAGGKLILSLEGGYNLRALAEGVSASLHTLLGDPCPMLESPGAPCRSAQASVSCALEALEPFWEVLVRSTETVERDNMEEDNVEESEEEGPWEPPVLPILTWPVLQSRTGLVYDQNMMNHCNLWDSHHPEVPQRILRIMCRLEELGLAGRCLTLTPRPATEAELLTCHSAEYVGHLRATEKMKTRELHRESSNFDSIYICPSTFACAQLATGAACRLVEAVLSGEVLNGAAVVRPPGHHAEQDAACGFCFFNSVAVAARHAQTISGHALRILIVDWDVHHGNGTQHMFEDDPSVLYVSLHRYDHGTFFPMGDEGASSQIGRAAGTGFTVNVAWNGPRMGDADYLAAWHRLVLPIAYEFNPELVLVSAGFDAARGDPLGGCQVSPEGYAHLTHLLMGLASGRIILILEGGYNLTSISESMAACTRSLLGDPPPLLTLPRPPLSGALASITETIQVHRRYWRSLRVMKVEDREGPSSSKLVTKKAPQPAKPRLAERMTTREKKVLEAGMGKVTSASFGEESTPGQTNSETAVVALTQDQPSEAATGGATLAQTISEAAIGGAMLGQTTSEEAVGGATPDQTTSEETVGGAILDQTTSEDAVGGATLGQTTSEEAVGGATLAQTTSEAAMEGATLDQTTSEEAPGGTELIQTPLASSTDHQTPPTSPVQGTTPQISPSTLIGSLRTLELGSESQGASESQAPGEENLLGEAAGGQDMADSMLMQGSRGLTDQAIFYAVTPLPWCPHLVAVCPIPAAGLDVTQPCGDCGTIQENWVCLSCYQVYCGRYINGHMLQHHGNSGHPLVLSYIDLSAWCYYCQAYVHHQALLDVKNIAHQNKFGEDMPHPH
Description: as §1

[8] = molecular target: T3, rhHDAC 8 (Homo sapiens, UniProt Q9BY41); test: Inhibition of recombinant human HDAC isoforms; assay type: biochemical; details: mean ± SD, triplicate per plate, min two plates; read-out: ED50 rhHDAC 8
T3 sequence (Q9BY41 1-377): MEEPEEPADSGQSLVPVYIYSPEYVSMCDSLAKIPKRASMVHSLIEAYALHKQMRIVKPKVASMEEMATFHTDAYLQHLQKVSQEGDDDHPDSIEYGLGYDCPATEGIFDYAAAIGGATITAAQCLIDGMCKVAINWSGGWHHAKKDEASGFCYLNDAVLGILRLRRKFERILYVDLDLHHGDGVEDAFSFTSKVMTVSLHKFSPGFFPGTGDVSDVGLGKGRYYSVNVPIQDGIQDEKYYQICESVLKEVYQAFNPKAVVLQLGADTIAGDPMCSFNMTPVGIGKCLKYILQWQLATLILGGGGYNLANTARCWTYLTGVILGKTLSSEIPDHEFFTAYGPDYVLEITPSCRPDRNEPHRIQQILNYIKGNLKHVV
Description: as §1

[9] = molecular target: rhHDAC 1 (Homo sapiens, UniProt Q13547); test: Inhibition of recombinant human HDAC isoforms; assay type: biochemical; details: mean ± SD, triplicate per plate, min two plates; read-out: ED50 rhHDAC 1
rhHDAC 1, sequence (Q13547 whole entry, canonical isoform): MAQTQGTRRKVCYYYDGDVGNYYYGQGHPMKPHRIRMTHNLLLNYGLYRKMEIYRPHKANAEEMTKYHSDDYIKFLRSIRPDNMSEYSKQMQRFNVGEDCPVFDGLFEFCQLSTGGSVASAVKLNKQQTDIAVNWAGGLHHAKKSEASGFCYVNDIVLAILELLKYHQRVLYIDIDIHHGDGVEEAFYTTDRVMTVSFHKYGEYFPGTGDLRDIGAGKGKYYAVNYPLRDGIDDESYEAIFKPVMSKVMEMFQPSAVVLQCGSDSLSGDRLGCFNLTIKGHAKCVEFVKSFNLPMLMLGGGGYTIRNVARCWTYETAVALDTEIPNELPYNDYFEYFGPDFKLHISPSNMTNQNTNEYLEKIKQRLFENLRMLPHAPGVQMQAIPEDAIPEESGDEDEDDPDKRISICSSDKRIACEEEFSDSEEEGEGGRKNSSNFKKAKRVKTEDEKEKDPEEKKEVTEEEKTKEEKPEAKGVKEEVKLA
Description: as §1

SMILES | IC50 [1] | IC90 [1] | IC50 [2] | other results
O=C(/C=C/c1cccc(S(=O)(=O)N2CCN(c3ncccn3)CC2)c1)NO [Compound 1] | 34 ± 2 nM | 66 ± 4 nM | 84 ± 53 nM | –
O=C(/C=C/c1cccc(S(=O)(=O)N2CCN(c3ccc(Cl)cc3)CC2)c1)NO [Compound 2] | 64 ± 5 nM | 130 ± 5 nM | 149 ± 6 nM | –
O=C(/C=C/c1cccc(S(=O)(=O)N2CCN(c3ccccn3)CC2)c1)NO [Compound 3] | 86 ± 9 nM | 201 ± 5 nM | 123 ± 76 nM | IC50 [3]: 55 ± 6 nM; IC50 [4]: 100 ± 97 nM; IC50 [5]: 86 ± 61 nM; IC50 [6]: 2.8 ± 0.4 nM; IC50 [7]: 179 ± 115 nM; IC50 [8]: 581 ± 334 nM
O=C(/C=C/c1cccc(S(=O)(=O)N2CCN(c3cccc(Cl)c3)CC2)c1)NO [Compound 4] | 123 ± 6 nM | 169 ± 8 nM | 187 ± 82 nM | –
O=C(/C=C/c1cccc(S(=O)(=O)Nc2ccc(OC(F)(F)F)cc2)c1)NO [Compound 5] | 137 ± 7 nM | 220 ± 7 nM | – | –
O=C(/C=C/c1cccc(S(=O)(=O)N2CCN(c3ccccc3F)CC2)c1)NO [Compound 6] | 141 ± 9 nM | 224 ± 14 nM | 191 ± 36 nM | –
O=C(/C=C/c1cccc(S(=O)(=O)N2CCN(c3ccccc3Cl)CC2)c1)NO [Compound 7] | 154 ± 13 nM | 281 ± 19 nM | 68 ± 36 nM | –
O=C(/C=C/c1cccc(S(=O)(=O)Nc2ccc(OC(F)F)cc2)c1)NO [Compound 8] | 154 ± 13 nM | 306 ± 61 nM | 10 ± 2 nM | –
COc1ccc2nc(/C=C/C(=O)NO)ccc2c1 [Compound 9] | 155 ± 18 nM | 310 ± 40 nM | 28 ± 4 nM | –
O=C(/C=C/c1cccc(S(=O)(=O)N2CCN(c3ccccc3)CC2)c1)NO [Compound 11] | 167 ± 12 nM | 228 ± 2 nM | 132 ± 103 nM | –
COc1ccccc1N1CCN(S(=O)(=O)c2cccc(/C=C/C(=O)NO)c2)CC1 [Compound 12] | 198 ± 5 nM | 265 ± 5 nM | 22 ± 2 nM | IC50 [3]: 310 ± 28 nM; IC50 [5]: 145 ± 151 nM; IC50 [6]: 96 ± 46 nM; IC50 [7]: 305 ± 19 nM; IC50 [9]: 53 ± 3 nM; IC50 [8]: 328 ± 193 nM
COc1cccc(NS(=O)(=O)c2cccc(/C=C/C(=O)NO)c2)c1 [Compound 13] | 198 ± 21 nM | 333 ± 28 nM | 22 ± 2 nM | –
O=C(/C=C/c1cccc(S(=O)(=O)N2CCN(Cc3ccc4c(c3)OCO4)CC2)c1)NO [Compound 14] | 261 ± 38 nM | 485 ± 43 nM | 269 ± 87 nM | –
O=C(/C=C/c1ccc2ccccc2n1)NO [Compound 16] | 353 ± 16 nM | 648 ± 20 nM | 22 nM | –
O=C(/C=C/c1cccc(S(=O)(=O)Nc2ccc(Cl)cc2)c1)NO [Compound 17] | 368 ± 23 nM | 651 ± 83 nM | 42 ± 11 nM | –
COc1ccc(NS(=O)(=O)c2cccc(/C=C/C(=O)NO)c2)cc1OC [Compound 19] | 927 ± 57 nM | 2150 ± 140 nM | 23 ± 5 nM | –
O=C(/C=C/c1ccc2c(c1)OCO2)NCCCCCC(=O)NO [Compound 21] | > 10000 nM | – | 29 ± 16 nM | –
O=C(/C=C/c1ccccc1)NCCCCCC(=O)NO [Compound 22] | > 10000 nM | – | 20 ± 2 nM | –
CC(/C=C/c1ccccc1)=C\C(=O)NCCCCCC(=O)NO [Compound 23] | > 10000 nM | – | – | –
CN(CCCCCC(=O)NO)C(=O)/C=C/C=C/c1ccccc1 [Compound 24] | > 10000 nM | – | – | –
